Results reported in patent US11884708B2, “Stapled peptide inhibitors of nemo as potential anti-inflammatory and anti-cancer drugs” (INSTITUT PASTEUR, priority 2015, dated 2024).
Where two headings read alike, the source gives them in different places. Where a SMILES comes first, the peptide text is derived from it. Bridges are numbered along the chain shown (N, C = ends). [ ]: non-standard residue; d: D form. The star is where a group is joined. BODIPYFLEthylmaleimide = Cc1cc(C)n2c1C=C1C=CC(CCC(=O)NCCN3C(=O)CC(*)C3=O)=[N+]1[B-]2(F)F; R8 = C=CCCCCCC[C@@](C)(N)C(=O)O; S5 = C=CCCC[C@](C)(N)C(=O)O

Legend:
[1] = target: NF-κB pathway (Mus musculus, UniProt O88522); experiment: NF-κB inhibition assay, LPS-stimulated 70Z3-C3 lacZ reporter cells; assay type: cell-based; details: 70Z3-C3 cells, 2 h peptide then LPS 4 h, N.I = No inhibition observed; for IC50: read-out: IC 50 NF-κB inhibition
Text: The stable cell line of pre-B lymphocyte 70Z3-C3 cells expressing the lacZ reporter gene under the control of NF-κB was previously described. OCI-Ly3 (ABC-DLBCL, MALT1 dependent) and OCI-Ly7 (GCB-DLBCL). U2932 (ABC-DLBCL, MALT1 independent) were purchased from DSMZ (Deutsche Sammlung von Mikroorganismen and Zellkulturen) and HLY1 (ABC-DLBCL, MALT1 independent). Jurkat T-cells were obtained after transduction of lentiviruses containing a NF-κB reporter luciferase gene as previously described. All cell lines were grown in RPMI 1640 medium supplemented with 10% FBS, 10 μg/ml of streptomycin, 10 U/ml of penicillin and kept at 37° C., in a 5% CO2 humidified incubator. 0.05 mM of β-mercaptoethanol was added for 70Z3-C3. Primary and secondary antibodies were as following: polyclonal rabbit anti NF-κB p65, (sc-372, Santa Cruz Biotechnology, Inc) Alexa-488 coupled goat anti-rabbit IgG1 (Invitrogen) NF-κB inhibition assay was almost similar to those previously described in [1], except that luminescence data were monitored with a Centro XS^3, LB960 luminometer (Berthold technologies.), which is more sensitive. All experiments were performed in duplicates in 96-well plates. […] After 4 h incubation, cells were centrifuged 7 min at 400×g, at 4° C.

[2] = target: CC2-LZ domain of NEMO (Mus musculus, UniProt O88522); experiment: Fluorescence anisotropy/polarization binding assay; details: fixed peptide concentration 0.1 μM
[3] = test system: 70Z3-C3 cells; experiment: Cellular uptake of BODIPY-labeled peptides by FACS; assay type: cell-based
Method: 2.2×10^5 cells in 100 μl of 70Z3-C3 were incubated with either 10 μM or with various doses of 10 μM, 5 μM and 1 μM of labeled-peptides at 37° C., 5% CO2. Similarly to fluorescence microscopy experiments, cells alone or incubated with BODIPY®-labeled BSA (ref) or BODIPY®-UBI devoid of the antennapedia cell penetrating sequence were used as negative control, whereas cells with BA-UBI [1] at 10 μM were used as positive control. After 2 h incubation, cells were washed 4 times with PBS at room temperature, and finally diluted 1:3 in PBS before subjected to FACS analysis. Along with the BODIPY® fluorophore the fluorescence intensity was recorded at 525±25 nm using the Gallios Flow cytometer (Beckman Coulter) to analyse each cells sample. Each internalization peptide was assessed by gating a population of 15,000 events and the data were analysed using Kaluza software version 1.2.
For determination of cellular uptake by flow cytometry, the BA-UBI-SAHND306-Q313 stapled peptide was first incubated with 2.2×10^5 70Z3-C3 cells in […] either at 4° C. or 37° C. for 2 h. Bodipy-labeled BSA, bodipy alone and bodipy-UBI were used as negative controls to verify the washing quality and efficient removal of any non-specific binding at the cell surface before FACS analysis. […] After 2 h of incubation, cells were washed four times with PBS at room temperature and diluted at 1:3 in PBS for FACS analysis. Samples were analyzed as previously described in the European patent (No: 15307137.8).

Chain of NF-κB pathway (O88522 whole entry): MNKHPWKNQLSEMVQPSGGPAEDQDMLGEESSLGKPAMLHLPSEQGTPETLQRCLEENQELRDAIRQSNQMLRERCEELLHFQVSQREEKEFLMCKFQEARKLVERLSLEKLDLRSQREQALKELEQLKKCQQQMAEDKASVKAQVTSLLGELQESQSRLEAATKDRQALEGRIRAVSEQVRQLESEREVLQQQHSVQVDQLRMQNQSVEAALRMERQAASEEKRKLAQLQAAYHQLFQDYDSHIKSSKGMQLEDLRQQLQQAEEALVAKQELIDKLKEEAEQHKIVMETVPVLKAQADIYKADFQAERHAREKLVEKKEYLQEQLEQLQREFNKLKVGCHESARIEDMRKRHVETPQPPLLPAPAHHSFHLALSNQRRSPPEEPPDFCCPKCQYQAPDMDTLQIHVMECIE
Chain of CC2-LZ domain of NEMO (O88522 242-343 limits assumed): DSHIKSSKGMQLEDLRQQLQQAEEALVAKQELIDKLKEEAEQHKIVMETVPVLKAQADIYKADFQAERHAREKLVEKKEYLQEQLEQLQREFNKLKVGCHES

IC 50 NF-κB inhibition [1]	IC50 [1]	SMILES	other results
N.I*	–	CC[C@H](C)[C@H](NC(=O)[C@H](CC(=O)O)NC(=O)C(C)(C)NC(=O)[C@H](CCC(N)=O)NC(=O)C(C)(C)NC(=O)[C@H](CCCCN)NC(=O)[C@@H](N)CC(C)C)C(=O)N[C@@H](Cc1ccc(O)cc1)C(=O)N[C@@H](CCCCN)C(=O)NC(C)(C)C(=O)N[C@@H](CCCNC(=N)N)C(=O)N[C@@H](Cc1ccccc1)C(=O)N[C@@H](CCC(N)=O)C(=O)NC(C)(C)C(=O)N[C@@H](CCC(=O)O)C(=O)N[C@@H](CCCNC(=N)N)C(=O)N[C@@H](Cc1c[nH]cn1)C(=O)NC(C)(C)C(=O)N[C@@H](CCCNC(=N)N)C(=O)N[C@@H](CCC(=O)O)C(=O)N[C@@H](CCCCN)C(=O)O [UBI-AIB, LKAibQAibDIYKAibRFQAibERHAibREK] (HELM PEPTIDE1{L.K.[Aib].Q.[Aib].D.I.Y.K.[Aib].R.F.Q.[Aib].E.R.H.[Aib].R.E.K}$$$$V2.0)	–
N.I*	–	CC[C@H](C)[C@H](NC(=O)[C@H](CC(=O)O)NC(=O)[C@H](C)NC(=O)[C@H](CCC(N)=O)NC(=O)[C@H](C)NC(=O)[C@H](CCCCN)NC(=O)[C@@H](N)CC(C)C)C(=O)N[C@@H](Cc1ccc(O)cc1)C(=O)N[C@@H](CCCCN)C(=O)N[C@@H](C)C(=O)N[C@@H](CCCNC(=N)N)C(=O)N[C@@H](Cc1ccccc1)C(=O)N[C@@H](CCC(N)=O)C(=O)N[C@@H](C)C(=O)N[C@@H](CCC(=O)O)C(=O)N[C@@H](CCCNC(=N)N)C(=O)N[C@@H](Cc1c[nH]cn1)C(=O)N[C@@H](C)C(=O)N[C@@H](CCCNC(=N)N)C(=O)N[C@@H](CCC(=O)O)C(=O)N[C@@H](CCCCN)C(=O)O [UBI, reference compound] (H-LKAQADIYKARFQAERHAREK-OH)	–

Further lines, the molecule ahead of its results:

SMILES	IC 50 NF-κB inhibition [1]	IC50 [1]	other results
CC[C@H](C)[C@H](NC(=O)[C@H](CCCCN)NC(=O)[C@@H](NC(=O)[C@H](CCC(N)=O)NC(=O)[C@H](CCCNC(=N)N)NC(=O)[C@H](CSC1CC(=O)N(CCNC(=O)CCC2=[N+]3C(=Cc4c(C)cc(C)n4[B-]3(F)F)C=C2)C1=O)NC(C)=O)[C@@H](C)CC)C(=O)N[C@@H](Cc1c[nH]c2ccccc12)C(=O)N[C@@H](Cc1ccccc1)C(=O)N[C@@H](CCC(N)=O)C(=O)N[C@@H](CC(N)=O)C(=O)N[C@@H](CCCNC(=N)N)C(=O)N[C@@H](CCCNC(=N)N)C(=O)N[C@@H](CCSC)C(=O)N[C@@H](CCCCN)C(=O)N[C@@H](Cc1c[nH]c2ccccc12)C(=O)N[C@@H](CCCCN)C(=O)N[C@@H](CCCCN)C(=O)N[C@@H](CC(C)C)C(=O)N[C@@H](CCCCN)C(=O)N[C@@H](C)C(=O)N[C@@H](CCC(N)=O)C(=O)N[C@@H](C)C(=O)N[C@]1(C)CCCCCCC=CCCC[C@@](C)(C(=O)N[C@@H](C)C(=O)N[C@@H](CCC(=O)O)C(=O)N[C@@H](CCCNC(=N)N)C(=O)N[C@@H](Cc2c[nH]cn2)C(=O)N[C@@H](C)C(=O)N[C@@H](CCCNC(=N)N)C(=O)N[C@@H](CCC(=O)O)C(=O)N[C@@H](CCCCN)C(N)=O)NC(=O)[C@H](Cc2ccccc2)NC(=O)[C@H](CCCNC(=N)N)NC(=O)[C@H](C)NC(=O)[C@H](CCCCN)NC(=O)[C@H](Cc2ccc(O)cc2)NC(=O)[C@H]([C@@H](C)CC)NC1=O (single isomer, unassigned) [A-UBI-SAHN D306-Q313 (A)]	–	600 nM	Kd ([2]; peptides with antennapedia, read-out: KD): 60 nM
CC[C@H](C)[C@@H]1NC(=O)[C@H](CC(=O)O)NC(=O)[C@H](C)NC(=O)[C@H](CCC(N)=O)NC(=O)[C@](C)(NC(=O)[C@H](CCCCN)NC(=O)[C@H](CC(C)C)NC(=O)[C@H](CCCCN)NC(=O)[C@H](CCCCN)NC(=O)[C@H](Cc2c[nH]c3ccccc23)NC(=O)[C@H](CCCCN)NC(=O)[C@H](CCSC)NC(=O)[C@H](CCCNC(=N)N)NC(=O)[C@H](CCCNC(=N)N)NC(=O)[C@H](CC(N)=O)NC(=O)[C@H](CCC(N)=O)NC(=O)[C@H](Cc2ccccc2)NC(=O)[C@H](Cc2c[nH]c3ccccc23)NC(=O)[C@@H](NC(=O)[C@H](CCCCN)NC(=O)[C@@H](NC(=O)[C@H](CCC(N)=O)NC(=O)[C@H](CCCNC(=N)N)NC(=O)[C@H](CSC2CC(=O)N(CCNC(=O)CCC3=[N+]4C(=Cc5c(C)cc(C)n5[B-]4(F)F)C=C3)C2=O)NC(C)=O)[C@@H](C)CC)[C@@H](C)CC)CCCCCCC=CCCC[C@@](C)(C(=O)N[C@@H](CCCNC(=N)N)C(=O)N[C@@H](Cc2ccccc2)C(=O)N[C@@H](CCC(N)=O)C(=O)N[C@@H](C)C(=O)N[C@@H](CCC(=O)O)C(=O)N[C@@H](CCCNC(=N)N)C(=O)N[C@@H](Cc2c[nH]cn2)C(=O)N[C@@H](C)C(=O)N[C@@H](CCCNC(=N)N)C(=O)N[C@@H](CCC(=O)O)C(=O)N[C@@H](CCCCN)C(N)=O)NC(=O)[C@H](CCCCN)NC(=O)[C@H](Cc2ccc(O)cc2)NC1=O (single isomer, unassigned) [A-UBI-SAHN A303-A310 (B)]	–	600 nM	–
CC[C@H](C)[C@@H]1NC(=O)[C@](C)(NC(=O)[C@H](C)NC(=O)[C@H](CCC(N)=O)NC(=O)[C@H](C)NC(=O)[C@H](CCCCN)NC(=O)[C@H](CC(C)C)NC(=O)[C@H](CSC2CC(=O)N(CCNC(=O)CCC3=[N+]4C(=Cc5c(C)cc(C)n5[B-]4(F)F)C=C3)C2=O)NC(C)=O)CCCCCCC=CCCC[C@@](C)(C(=O)N[C@@H](C)C(=O)N[C@@H](CCC(=O)OC)C(=O)N[C@@H](CCCNC(=N)N)C(=O)N[C@@H](Cc2c[nH]cn2)C(=O)N[C@@H](C)C(=O)N[C@@H](CCCNC(=N)N)C(=O)N[C@@H](CCC(=O)OC)C(=O)N[C@@H](CCCCN)C(N)=O)NC(=O)[C@H](Cc2ccccc2)NC(=O)[C@H](CCCNC(=N)N)NC(=O)[C@H](C)NC(=O)[C@H](CCCCN)NC(=O)[C@H](Cc2ccc(O)cc2)NC1=O (some centres unmarked) [UBI-SAHN D306-Q313 OMe, LKAQAX2IYKARFX5AX7RHARX9K] (Ac-C(BODIPYFLEthylmaleimide)LKAQA[R8]IYKARF[S5]AE(OMe)RHARE(OMe)K-NH2; staple 7-14)	–	–	Kd ([2]; read-out: Binding affinity (FP) at 0.1 μM): 24000 ± 5000 nM; cell internalization by FACS, in words [3]: became cell permeable
C[C@@H]1[C@H](O)[C@@H](C)/C=C/C=C/CC/C=C/C=C/C=C/C=C/C(O[C@H]2O[C@H](C)[C@@H](O)[C@H](N)[C@@H]2O)CC2O[C@](O)(CC(O)C(O)CCC(O)CC(O)CC(O)CC(=O)O[C@H]1C)CC(O)C2C(=O)O (some centres unmarked) [nystatin, reference compound]	–	–	reduction of the uptake of A-UBI-SAHND306-Q313 by endocytosis inhibitor ([3]; 30 min pre-incubation, nystatin 50 μg/ml, chlorpromazine 10 μg/ml, ethylisopropylamiloride 100 μM): 50%
